# In ChEMBL document CHEMBL1138695, “Synthesis of stavudine amino acid ester prodrugs with broad-spectrum chemotherapeutic properties for the effective treatment of HIV/AIDS” (Bioorg Med Chem Lett, 2004):
# System: Klebsiella pneumoniae
# Assay: Antibacterial activity against Klebsiella pneumoniae
# Type: functional
# Details: not given
row,Compound,MIC
1,Cc1cn(C2C=CC(COC(=O)CN3CCN(c4cc5c(cc4F)c(=O)c(C(=O)O)cn5C4CC4)CC3)O2)c(=O)[nH]c1=O (stereo unspecified),1.22 µg/mL
2,Cc1cn(C2C=CC(COC(=O)CNC(=O)c3ccncn3)O2)c(=O)[nH]c1=O (stereo unspecified),1250 µg/mL

# System: Pseudomonas aeruginosa
# Assay: Antibacterial activity against Pseudomonas aeruginosa
# Type: functional
# Details: not given
row,Compound,MIC
1,Cc1cn(C2C=CC(COC(=O)CN3CCN(c4cc5c(cc4F)c(=O)c(C(=O)O)cn5C4CC4)CC3)O2)c(=O)[nH]c1=O (stereo unspecified),1.22 µg/mL
2,Cc1cn(C2C=CC(COC(=O)CNC(=O)c3ccncn3)O2)c(=O)[nH]c1=O (stereo unspecified),1250 µg/mL

# System: Proteus vulgaris
# Assay: Antibacterial activity against Proteus vulgaris
# Type: functional
# Details: not given
row,Compound,MIC
1,Cc1cn(C2C=CC(COC(=O)CN3CCN(c4cc5c(cc4F)c(=O)c(C(=O)O)cn5C4CC4)CC3)O2)c(=O)[nH]c1=O (stereo unspecified),4.88 µg/mL
2,Cc1cn(C2C=CC(COC(=O)CNC(=O)c3ccncn3)O2)c(=O)[nH]c1=O (stereo unspecified),1250 µg/mL

# System: Shigella boydii
# Assay: Antibacterial activity against Shigella boydii
# Type: functional
# Details: not given
row,Compound,MIC
1,Cc1cn(C2C=CC(COC(=O)CN3CCN(c4cc5c(cc4F)c(=O)c(C(=O)O)cn5C4CC4)CC3)O2)c(=O)[nH]c1=O (stereo unspecified),0.61 µg/mL
2,Cc1cn(C2C=CC(COC(=O)CNC(=O)c3ccncn3)O2)c(=O)[nH]c1=O (stereo unspecified),312 µg/mL

# System: CCRF-CEM
# Assay: Cytotoxic concentration of compound required to reduce the viability of mock infected CEM cells by 50%
# Type: functional
# Details: Homo sapiens
row,Compound,CC50
1,Cc1cn([C@H]2C=C[C@@H](CO)O2)c(=O)[nH]c1=O [STAVUDINE],> 100 µM
2,Cc1cn(C2C=CC(COC(=O)CN3CCN(c4cc5c(cc4F)c(=O)c(C(=O)O)cn5C4CC4)CC3)O2)c(=O)[nH]c1=O (stereo unspecified),695 µM
3,Cc1cn(C2C=CC(COC(=O)CN(C)C)O2)c(=O)[nH]c1=O (stereo unspecified),456 µM
4,Cc1cn(C2C=CC(COC(=O)CN3CCNCC3)O2)c(=O)[nH]c1=O (stereo unspecified),> 1000 µM
5,Cc1cn(C2C=CC(COC(=O)CNC(=O)c3ccncn3)O2)c(=O)[nH]c1=O (stereo unspecified),567 µM

# System: Shigella sonnei
# Assay: Antibacterial activity against Shigella sonnei
# Type: functional
# Details: not given
row,Compound,MIC
1,Cc1cn(C2C=CC(COC(=O)CN3CCN(c4cc5c(cc4F)c(=O)c(C(=O)O)cn5C4CC4)CC3)O2)c(=O)[nH]c1=O (stereo unspecified),4.88 µg/mL
2,Cc1cn(C2C=CC(COC(=O)CNC(=O)c3ccncn3)O2)c(=O)[nH]c1=O (stereo unspecified),312 µg/mL

# System: Staphylococcus aureus
# Assay: Antibacterial activity against Staphylococcus aureus
# Type: functional
# Details: not given
row,Compound,MIC
1,Cc1cn(C2C=CC(COC(=O)CN3CCN(c4cc5c(cc4F)c(=O)c(C(=O)O)cn5C4CC4)CC3)O2)c(=O)[nH]c1=O (stereo unspecified),4.88 µg/mL
2,Cc1cn(C2C=CC(COC(=O)CNC(=O)c3ccncn3)O2)c(=O)[nH]c1=O (stereo unspecified),1250 µg/mL

# System: Vibrio cholerae
# Assay: Antibacterial activity against Vibrio cholerae 01
# Type: functional
# Details: not given
row,Compound,MIC
1,Cc1cn(C2C=CC(COC(=O)CN3CCN(c4cc5c(cc4F)c(=O)c(C(=O)O)cn5C4CC4)CC3)O2)c(=O)[nH]c1=O (stereo unspecified),0.3 µg/mL
2,Cc1cn(C2C=CC(COC(=O)CNC(=O)c3ccncn3)O2)c(=O)[nH]c1=O (stereo unspecified),1250 µg/mL

# System: Citrobacter freundii
# Assay: Antibacterial activity against Citrobacter ferundii
# Type: functional
# Details: not given
row,Compound,MIC
1,Cc1cn(C2C=CC(COC(=O)CN3CCN(c4cc5c(cc4F)c(=O)c(C(=O)O)cn5C4CC4)CC3)O2)c(=O)[nH]c1=O (stereo unspecified),0.61 µg/mL
2,Cc1cn(C2C=CC(COC(=O)CNC(=O)c3ccncn3)O2)c(=O)[nH]c1=O (stereo unspecified),1250 µg/mL

# System: Vibrio mimicus
# Assay: Antibacterial activity against Vibrio mimicus
# Type: functional
# Details: not given
row,Compound,MIC
1,Cc1cn(C2C=CC(COC(=O)CN3CCN(c4cc5c(cc4F)c(=O)c(C(=O)O)cn5C4CC4)CC3)O2)c(=O)[nH]c1=O (stereo unspecified),0.3 µg/mL
2,Cc1cn(C2C=CC(COC(=O)CNC(=O)c3ccncn3)O2)c(=O)[nH]c1=O (stereo unspecified),78.1 µg/mL

# System: not listed separately
# Assay: Selectivity index expressed as the ratio of CC50 to EC50
# Type: functional
# Details: not given
row,Compound,Selectivity index
1,Cc1cn([C@H]2C=C[C@@H](CO)O2)c(=O)[nH]c1=O [STAVUDINE],> 1110
2,Cc1cn(C2C=CC(COC(=O)CN3CCN(c4cc5c(cc4F)c(=O)c(C(=O)O)cn5C4CC4)CC3)O2)c(=O)[nH]c1=O (stereo unspecified),11.2
3,Cc1cn(C2C=CC(COC(=O)CN(C)C)O2)c(=O)[nH]c1=O (stereo unspecified),1330
4,Cc1cn(C2C=CC(COC(=O)CN3CCNCC3)O2)c(=O)[nH]c1=O (stereo unspecified),> 15700
5,Cc1cn(C2C=CC(COC(=O)CNC(=O)c3ccncn3)O2)c(=O)[nH]c1=O (stereo unspecified),1090

# System: Salmonella enteritidis
# Assay: Antibacterial activity against Salmonella enteritidis
# Type: functional, Salmonella enterica subsp. enterica serovar Enteritidis
# Details: Salmonella enterica
row,Compound,MIC
1,Cc1cn(C2C=CC(COC(=O)CN3CCN(c4cc5c(cc4F)c(=O)c(C(=O)O)cn5C4CC4)CC3)O2)c(=O)[nH]c1=O (stereo unspecified),0.61 µg/mL
2,Cc1cn(C2C=CC(COC(=O)CNC(=O)c3ccncn3)O2)c(=O)[nH]c1=O (stereo unspecified),1250 µg/mL

# System: Vibrio fluvialis
# Assay: Antibacterial activity against Vibrio fluvialis
# Type: functional
# Details: not given
row,Compound,MIC
1,Cc1cn(C2C=CC(COC(=O)CN3CCN(c4cc5c(cc4F)c(=O)c(C(=O)O)cn5C4CC4)CC3)O2)c(=O)[nH]c1=O (stereo unspecified),0.61 µg/mL
2,Cc1cn(C2C=CC(COC(=O)CNC(=O)c3ccncn3)O2)c(=O)[nH]c1=O (stereo unspecified),1250 µg/mL

# System: Vibrio parahaemolyticus
# Assay: Antibacterial activity against Vibrio parahaemolyticus
# Type: functional
# Details: not given
row,Compound,MIC
1,Cc1cn(C2C=CC(COC(=O)CN3CCN(c4cc5c(cc4F)c(=O)c(C(=O)O)cn5C4CC4)CC3)O2)c(=O)[nH]c1=O (stereo unspecified),0.3 µg/mL
2,Cc1cn(C2C=CC(COC(=O)CNC(=O)c3ccncn3)O2)c(=O)[nH]c1=O (stereo unspecified),1250 µg/mL

# System: Priestia megaterium
# Assay: Antibacterial activity against Bacillus megatherium
# Type: functional
# Details: not given
row,Compound,MIC
1,Cc1cn(C2C=CC(COC(=O)CN3CCN(c4cc5c(cc4F)c(=O)c(C(=O)O)cn5C4CC4)CC3)O2)c(=O)[nH]c1=O (stereo unspecified),0.3 µg/mL
2,Cc1cn(C2C=CC(COC(=O)CNC(=O)c3ccncn3)O2)c(=O)[nH]c1=O (stereo unspecified),39.1 µg/mL

# System: Morganella morganii
# Assay: Antibacterial activity against Morganella morganii
# Type: functional
# Details: not given
row,Compound,MIC
1,Cc1cn(C2C=CC(COC(=O)CN3CCN(c4cc5c(cc4F)c(=O)c(C(=O)O)cn5C4CC4)CC3)O2)c(=O)[nH]c1=O (stereo unspecified),0.61 µg/mL
2,Cc1cn(C2C=CC(COC(=O)CNC(=O)c3ccncn3)O2)c(=O)[nH]c1=O (stereo unspecified),312 µg/mL

# System: Vibrio cholerae
# Assay: Antibacterial activity against Vibrio cholerae 0139
# Type: functional
# Details: not given
row,Compound,MIC
1,Cc1cn(C2C=CC(COC(=O)CN3CCN(c4cc5c(cc4F)c(=O)c(C(=O)O)cn5C4CC4)CC3)O2)c(=O)[nH]c1=O (stereo unspecified),0.61 µg/mL
2,Cc1cn(C2C=CC(COC(=O)CNC(=O)c3ccncn3)O2)c(=O)[nH]c1=O (stereo unspecified),1250 µg/mL

# System: Escherichia coli
# Assay: Antibacterial activity against Escherichia coli NCTC 10418
# Type: functional
# Details: not given
row,Compound,MIC
1,Cc1cn(C2C=CC(COC(=O)CN3CCN(c4cc5c(cc4F)c(=O)c(C(=O)O)cn5C4CC4)CC3)O2)c(=O)[nH]c1=O (stereo unspecified),0.3 µg/mL
2,Cc1cn(C2C=CC(COC(=O)CNC(=O)c3ccncn3)O2)c(=O)[nH]c1=O (stereo unspecified),1250 µg/mL

# System: Klebsiella pneumoniae
# Assay: Antibacterial activity against Klebsiella ozaenae
# Type: functional
# Details: subsp. ozaenae
row,Compound,MIC
1,Cc1cn(C2C=CC(COC(=O)CN3CCN(c4cc5c(cc4F)c(=O)c(C(=O)O)cn5C4CC4)CC3)O2)c(=O)[nH]c1=O (stereo unspecified),1.22 µg/mL
2,Cc1cn(C2C=CC(COC(=O)CNC(=O)c3ccncn3)O2)c(=O)[nH]c1=O (stereo unspecified),1250 µg/mL

# System: Salmonella typhimurium
# Assay: Antibacterial activity against Salmonella Typhimurium
# Type: functional, Salmonella enterica subsp. enterica serovar Typhimurium
# Details: Salmonella enterica
row,Compound,MIC
1,Cc1cn(C2C=CC(COC(=O)CN3CCN(c4cc5c(cc4F)c(=O)c(C(=O)O)cn5C4CC4)CC3)O2)c(=O)[nH]c1=O (stereo unspecified),0.3 µg/mL
2,Cc1cn(C2C=CC(COC(=O)CNC(=O)c3ccncn3)O2)c(=O)[nH]c1=O (stereo unspecified),1250 µg/mL

# System: Enterobacter
# Assay: Antibacterial activity against Enterobacter
# Type: functional
# Details: not given
row,Compound,MIC
1,Cc1cn(C2C=CC(COC(=O)CN3CCN(c4cc5c(cc4F)c(=O)c(C(=O)O)cn5C4CC4)CC3)O2)c(=O)[nH]c1=O (stereo unspecified),0.3 µg/mL
2,Cc1cn(C2C=CC(COC(=O)CNC(=O)c3ccncn3)O2)c(=O)[nH]c1=O (stereo unspecified),39.1 µg/mL

# System: Edwardsiella tarda
# Assay: Antibacterial activity against Edwardsiella tarda
# Type: functional
# Details: not given
row,Compound,MIC
1,Cc1cn(C2C=CC(COC(=O)CN3CCN(c4cc5c(cc4F)c(=O)c(C(=O)O)cn5C4CC4)CC3)O2)c(=O)[nH]c1=O (stereo unspecified),4.88 µg/mL
2,Cc1cn(C2C=CC(COC(=O)CNC(=O)c3ccncn3)O2)c(=O)[nH]c1=O (stereo unspecified),1250 µg/mL

# System: CCRF-CEM
# Assay: Effective concentration of compound achieving 50% protection in CEM cell lines against the cytopathic effect of HIV-1
# Type: functional, cell-based
# Details: Homo sapiens
row,Compound,EC50
1,Cc1cn([C@H]2C=C[C@@H](CO)O2)c(=O)[nH]c1=O [STAVUDINE],0.09 µM
2,Cc1cn(C2C=CC(COC(=O)CN3CCN(c4cc5c(cc4F)c(=O)c(C(=O)O)cn5C4CC4)CC3)O2)c(=O)[nH]c1=O (stereo unspecified),61.8 µM
3,Cc1cn(C2C=CC(COC(=O)CN(C)C)O2)c(=O)[nH]c1=O (stereo unspecified),0.343 µM
4,Cc1cn(C2C=CC(COC(=O)CN3CCNCC3)O2)c(=O)[nH]c1=O (stereo unspecified),< 0.0636 µM
5,Cc1cn(C2C=CC(COC(=O)CNC(=O)c3ccncn3)O2)c(=O)[nH]c1=O (stereo unspecified),0.52 µM

# System: not listed separately
# Assay: In vitro hydrolysis in human plasma
# Type: ADME, cell-free
# Details: not given
row,Compound,half-life
1,Cc1cn(C2C=CC(COC(=O)CN3CCN(c4cc5c(cc4F)c(=O)c(C(=O)O)cn5C4CC4)CC3)O2)c(=O)[nH]c1=O (stereo unspecified),240 min
2,Cc1cn(C2C=CC(COC(=O)CN(C)C)O2)c(=O)[nH]c1=O (stereo unspecified),30 min
3,Cc1cn(C2C=CC(COC(=O)CN3CCNCC3)O2)c(=O)[nH]c1=O (stereo unspecified),20 min
4,Cc1cn(C2C=CC(COC(=O)CNC(=O)c3ccncn3)O2)c(=O)[nH]c1=O (stereo unspecified),60 min

# System: Plesiomonas shigelloides
# Assay: Antibacterial activity against Plesiomonas shigelloides
# Type: functional
# Details: not given
row,Compound,MIC
1,Cc1cn(C2C=CC(COC(=O)CN3CCN(c4cc5c(cc4F)c(=O)c(C(=O)O)cn5C4CC4)CC3)O2)c(=O)[nH]c1=O (stereo unspecified),0.61 µg/mL
2,Cc1cn(C2C=CC(COC(=O)CNC(=O)c3ccncn3)O2)c(=O)[nH]c1=O (stereo unspecified),312 µg/mL

# System: Mycobacterium tuberculosis
# Assay: Antimycobacterial activity against Mycobacterium tuberculosis strain H37Rv
# Type: functional
# Set-up: concentration or dose not given beside the values
# Details: not given
row,Compound,Inhibition
1,Cc1cn([C@H]2C=C[C@@H](CO)O2)c(=O)[nH]c1=O [STAVUDINE],0%
2,Cc1cn(C2C=CC(COC(=O)CN3CCN(c4cc5c(cc4F)c(=O)c(C(=O)O)cn5C4CC4)CC3)O2)c(=O)[nH]c1=O (stereo unspecified),100%
3,Cc1cn(C2C=CC(COC(=O)CNC(=O)c3ccncn3)O2)c(=O)[nH]c1=O (stereo unspecified),0%

# System: Proteus mirabilis
# Assay: Antibacterial activity against Proteus mirabilis
# Type: functional
# Details: not given
row,Compound,MIC
1,Cc1cn(C2C=CC(COC(=O)CN3CCN(c4cc5c(cc4F)c(=O)c(C(=O)O)cn5C4CC4)CC3)O2)c(=O)[nH]c1=O (stereo unspecified),0.3 µg/mL
2,Cc1cn(C2C=CC(COC(=O)CNC(=O)c3ccncn3)O2)c(=O)[nH]c1=O (stereo unspecified),1250 µg/mL
